The values that follow come from patent US10280166B2, “2-(1H-indazol-3-yl)-3H-imidazo[4,5-B]pyridine and therapeutic uses thereof” (Samumed, LLC, priority 2014, dated 2019).

The subject of assay [1] is primary human fibroblasts derived from IPF patients (LL29 cells). Put plainly: Inhibition of fibrosis (αSMA) in TGF-β1 treated primary human fibroblasts from IPF patients. The assay is classed as cell-based. The conditions noted are these: Fibroblast, 96 h, TGF-β1 20 ng/mL, 4 days, % αSMA positive cells. From the text: The above synthesized compounds were screened using primary human fibroblasts (derived from IPF patients) treated with TGF-β1 to determine their ability to inhibit the fibrotic process.
Primary human fibroblasts derived from IPF patients (LL29 cells) [^1Xiaoqiu Liu, et.al., “Fibrotic Lung Fibroblasts Show Blunted Inhibition by cAMP Due to Deficient cAMP Response Element-Binding Protein Phosphorylation”, Journal of Pharmacology and Experimental Therapeutics (2005), 315(2), 678-687; ^2Watts, K. L., et.al., “RhoA signaling modulates cyclin D1 expression in human lung fibroblasts; implications for idiopathic pulmonary fibrosis”, Respiratory Research (2006), 7(1), 88] were obtained from American Type Culture Collection (ATCC) and expanded in F12 medium supplemented with 15% Fetal Bovine Serum and Penicillin/Streptomycin.
Each compound was dissolved in DMSO as a 10 mM stock and used to prepare compound source plates. Serial dilution (1:2, 11-point dose-response curves from 10 μM to 1.87 nM) and compound transfer was performed using the ECHO 550 (Labcyte, Sunnyvale, Calif.) into 384-well clear bottom assay plates (Greiner Bio-One) with appropriate DMSO backfill for a final DMSO concentration of 0.1%. LL29 cells were plated at 1,500 cells/well in 80 μl/well F12 medium supplemented with 1% Fetal Bovine Serum. One hour after addition of the cells, TGF-β1 (Peprotech; 20 ng/mL) was added to the plates to induce fibrosis (ref. 1 and 2 above). Wells treated with TGF-β1 and containing DMSO were used as controls. Cells were incubated at 37° C. and 5% CO2 for 4 days. Following incubation for 4 days, SYTOX green nucleic acid stain (Life Technologies [Thermo Fisher Scientific]) was added to the wells at a final concentration of 1 uM and incubated at room temperature for 30 min. Cells were then fixed using 4% formaldehyde (Electron Microscopy Sciences), washed 3 times with PBS followed by blocking and permeabilization using 3% Bovine Serum Albumin (BSA; Sigma) and 0.3% Triton X-100 (Sigma) in PBS. Cells were then stained with antibody specific to α-smooth muscle actin (αSMA; Abcam) (ref. 1 and 2 above) in 3% Bovine Serum Albumin (BSA; Sigma) and 0.3% Triton X-100 (Sigma) in PBS, and incubated overnight at 4° C. Cells were then washed 3 times with PBS, followed by incubation with Alexa Flor-647 conjugated secondary antibody (Life Technologies [Thermo Fisher Scientific]) and DAPI at room temperature for 1 hour. Cells were then washed 3 times with PBS and plates were sealed for imaging. αSMA staining was imaged by excitation at 630 nm and emission at 665 nm and quantified using the Compartmental Analysis program on the CellInsight CX5 (Thermo Scientific). Dead or apoptotic cells were excluded from analysis based on positive SYTOX green staining. % of total cells positive for αSMA were counted in each well and normalized to the average of 11 wells treated with TGF-β1 on the same plate using Dotmatics' Studies Software. The normalized averages (fold change over untreated) of 3 replicate wells for each compound concentration were used to create dose-responses curves and EC50 values were calculated using non-linear regression curve fit in the Dotmatics' Studies Software. The EC50 values are reported.

Assay [2] relates to Wnt activity (SW480 colon carcinoma cells stably expressing the Sp5-Luc reporter gene). The assay is described as follows: Sp5-Luc reporter gene screening assay for Wnt activity in SW480 cells. The assay is classed as cell-based. The conditions noted are these: Homo sapiens, 42 h incubation, luminescence. The essentials:
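SW480 cells stably carrying an Sp5 promoter (eight TCF/LEF sites)-luciferase reporter were plated overnight in 10% FCS medium. BrightGlo luminescence was normalised to DMSO wells, and IC50 was obtained by four-parameter fit.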

For the compound `NC1CN(c2cncc(-c3ccc4[nH]nc(-c5nc6c(-c7cccc(F)c7)ccnc6[nH]5)c4c3)n2)C1` [Compound 1878, 1-(6-(3-(7-(3-Fluorophenyl)-3H-imidazo[4,5-b]pyridin-2-yl)-1H-indazol-5-yl)pyrazin-2-yl)azetidin-3-amine], it took 9.99 nM to reach a half-maximal effect in assay [1] (EC50). This compound displayed a half-maximal inhibitory concentration (IC50) in assay [2] of 215 nM.
Compound `CCC(=O)Nc1cncc(-c2ccc3[nH]nc(-c4nc5c(-c6cccs6)ccnc5[nH]4)c3c2)c1` [Compound 313, N-(5-(3-(7-(Thiophen-2-yl)-3H-imidazo[4,5-b]pyridin-2-yl)-1H-indazol-5-yl)pyridin-3-yl)propionamide] yielded an EC50 in assay [1] of 0.027 nM. Also, the IC50 in assay [2] turned out to be 2 nM.
Regarding `CN1CCN(c2ccnc3[nH]c(-c4n[nH]c5ccc(-c6cncc(CN7CCCCC7)c6)cc45)nc23)CC1` [Compound 223, 7-(4-Methylpiperazin-1-yl)-2-(5-(5-(piperidin-1-ylmethyl)pyridin-3-yl)-1H-indazol-3-yl)-3H-imidazo[4,5-b]pyridine], the midpoint of the response in assay [1], the EC50, lay at 0.009 nM. This compound gave an IC50 in assay [2] of 3070 nM.
Taken in the same sequence, the figures for `CC(C)C(=O)Nc1cncc(-c2ccc3[nH]nc(-c4nc5c(-c6cccc(F)c6)ccnc5[nH]4)c3c2)c1` [Compound 9] were 9.99 nM and 3 nM.
In turn, `O=C(Nc1cncc(-c2ccc3[nH]nc(-c4nc5c(-c6ccccn6)ccnc5[nH]4)c3c2)c1)C1CCC1` [Compound 150, N-(5-(3-(7-(Pyridin-2-yl)-3H-imidazo[4,5-b]pyridin-2-yl)-1H-indazol-5-yl)pyridin-3-yl)cyclobutanecarboxamide] had an EC50 in assay [1] of 0.133 nM. For the same compound, half-maximal inhibition in assay [2] (IC50) was put at 15 nM.
Taken in the same sequence, the figures for `O=C(Nc1cncc(-c2ccc3[nH]nc(-c4nc5c(-c6ccsc6)ccnc5[nH]4)c3c2)c1)c1ccccc1` [Compound 271, N-(5-(3-(7-(Thiophen-3-yl)-3H-imidazo[4,5-b]pyridin-2-yl)-1H-indazol-5-yl)pyridin-3-yl)benzamide] were 0.068 nM and 8.4 nM.
Taken in the same sequence, the figures for `Cc1ccc(-c2ccnc3[nH]c(-c4n[nH]c5ccc(-c6cncc(CN7CCCCC7)c6)cc45)nc23)s1` [Compound 379, 7-(5-Methylthiophen-2-yl)-2-(5-(5-(piperidin-1-ylmethyl)pyridin-3-yl)-1H-indazol-3-yl)-3H-imidazo[4,5-b]pyridine] were 0.405 nM and 76 nM.
As for `CN(C)CC(=O)Nc1cncc(-c2ccc3[nH]nc(-c4nc5c(-c6cccc(F)c6)ccnc5[nH]4)c3c2)c1` [Compound 2373, 2-(Dimethylamino)-N-(5-(3-(7-(3-fluorophenyl)-3H-imidazo[4,5-b]pyridin-2-yl)-1H-indazol-5-yl)pyridin-3-yl)acetamide], the response in assay [1] was half-maximal at 0.233 nM (EC50). Further, in assay [2], the IC50 was 91 nM.
Compound `O=C(Nc1cncc(-c2ccc3[nH]nc(-c4nc5c(-c6cccc(F)c6)ccnc5[nH]4)c3c2)c1)C1CCCC1` [Compound 21, N-(5-(3-(7-(3-Fluorophenyl)-3H-imidazo[4,5-b]pyridin-2-yl)-1H-indazol-5-yl)pyridin-3-yl)cyclopentanecarboxamide] had an EC50 in assay [1] of 0.027 nM. This compound gave an IC50 in assay [2] of 9.1 nM.
`Fc1cccc(-c2ccnc3[nH]c(-c4n[nH]c5ccc(-c6cncc(OC7CCNCC7)c6)cc45)nc23)c1` [Compound 1880, 7-(3-Fluorophenyl)-2-(5-(5-(piperidin-4-yloxy)pyridin-3-yl)-1H-indazol-3-yl)-3H-imidazo[4,5-b]pyridine]: the EC50 in assay [1] was found to be 0.417 nM. The compound further came in with an IC50 in assay [2] of 1190 nM.
`Cc1cn(-c2ccnc3[nH]c(-c4n[nH]c5ccc(-c6cncc(NC(=O)C7CCC7)c6)cc45)nc23)cn1` [Compound 202, N-(5-(3-(7-(4-Methyl-1H-imidazol-1-yl)-3H-imidazo[4,5-b]pyridin-2-yl)-1H-indazol-5-yl)pyridin-3-yl)cyclobutanecarboxamide]: the EC50 in assay [1] came to 0.018 nM. For the same compound, the IC50 in assay [2] was determined as 4.7 nM.
Taken in the same sequence, the figures for `CS(=O)(=O)NCc1cc(F)cc(-c2ccnc3[nH]c(-c4n[nH]c5ccc(-c6cncc(CNCc7ccccc7)c6)cc45)nc23)c1` [Compound 439, N-(3-(2-(5-(5-((Benzylamino)methyl)pyridin-3-yl)-1H-indazol-3-yl)-3H-imidazo[4,5-b]pyridin-7-yl)-5-fluorobenzyl)methanesulfonamide] were 0.009 nM and 354 nM.
Taken in the same sequence, the figures for `O=C(Nc1cncc(-c2ccc3[nH]nc(-c4nc5c(-c6ccccc6F)ccnc5[nH]4)c3c2)c1)C1CC1` [Compound 71, N-(5-(3-(7-(2-Fluorophenyl)-3H-imidazo[4,5-b]pyridin-2-yl)-1H-indazol-5-yl)pyridin-3-yl)cyclopropanecarboxamide] were 9.99 nM and 11.1 nM.
Taken in the same sequence, the figures for `Fc1cccc(-c2ccnc3[nH]c(-c4n[nH]c5ccc(C6=CCNCC6)cc45)nc23)c1` [Compound 1874, 7-(3-Fluorophenyl)-2-(5-(1,2,3,6-tetrahydropyridin-4-yl)-1H-indazol-3-yl)-3H-imidazo[4,5-b]pyridine] were 0.317 nM and over 1000 nM.
In assay [1], `O=C(Nc1cncc(-c2ccc3[nH]nc(-c4nc5c(N6CCCCC6)ccnc5[nH]4)c3c2)c1)C1CC1` [Compound 175, N-(5-(3-(7-(Piperidin-1-yl)-3H-imidazo[4,5-b]pyridin-2-yl)-1H-indazol-5-yl)pyridin-3-yl)cyclopropanecarboxamide] gave an EC50 of 9.99 nM. The IC50 in assay [2] was found to be 99.3 nM.
In assay [1], `Fc1ccc(-c2ccnc3[nH]c(-c4n[nH]c5ccc(-c6cncnc6)cc45)nc23)cc1` [Compound 52, 7-(4-Fluorophenyl)-2-(5-(pyrimidin-5-yl)-1H-indazol-3-yl)-3H-imidazo[4,5-b]pyridine] showed an EC50 of 1.25 nM. Moreover, half-maximal inhibition in assay [2] (IC50) was put at 25.6 nM.
Taken in the same sequence, the figures for `CCCCC(=O)Nc1cncc(-c2ccc3[nH]nc(-c4nc5c(-c6ccoc6)ccnc5[nH]4)c3c2)c1` [Compound 304, N-(5-(3-(7-(Furan-3-yl)-3H-imidazo[4,5-b]pyridin-2-yl)-1H-indazol-5-yl)pyridin-3-yl)pentanamide] were 0.079 nM and 6 nM.
Taken in the same sequence, the figures for `Cc1ccc(-c2ccnc3[nH]c(-c4n[nH]c5ccc(-c6cncc(NC(=O)C(C)(C)C)c6)cc45)nc23)s1` [Compound 372, N-(5-(3-(7-(5-Methylthiophen-2-yl)-3H-imidazo[4,5-b]pyridin-2-yl)-1H-indazol-5-yl)pyridin-3-yl)pivalamide] were 0.009 nM and 0.6 nM.
Turning to `CC(C)(C)C(=O)Nc1cncc(-c2ccc3[nH]nc(-c4nc5c(-c6cccs6)ccnc5[nH]4)c3c2)c1` [Compound 320, N-(5-(3-(7-(Thiophen-2-yl)-3H-imidazo[4,5-b]pyridin-2-yl)-1H-indazol-5-yl)pyridin-3-yl)pivalamide], in assay [1], the EC50 was found to be 0.016 nM. Further, the midpoint of inhibition in assay [2], the IC50, lay at 8.8 nM.
On to `c1cncc(-c2ccc3[nH]nc(-c4nc5cccnc5[nH]4)c3c2)c1` [Compound 238, 2-(5-(Pyridin-3-yl)-1H-indazol-3-yl)-3H-imidazo[4,5-b]pyridine], for which the EC50 in assay [1] worked out at 0.013 nM. Moreover, the midpoint of inhibition in assay [2], the IC50, lay at 28.8 nM.
As for `CN(C)Cc1cncc(-c2ccc3[nH]nc(-c4nc5c(N6CCCCC6)ccnc5[nH]4)c3c2)c1` [Compound 169, N,N-Dimethyl-1-(5-(3-(7-(piperidin-1-yl)-3H-imidazo[4,5-b]pyridin-2-yl)-1H-indazol-5-yl)pyridin-3-yl)methanamine], the EC50 in assay [1] was 0.396 nM. The same compound came in with an IC50 in assay [2] of 1450 nM.
Consider `O=C(Nc1cncc(-c2ccc3[nH]nc(-c4nc5c(-c6ccccn6)ccnc5[nH]4)c3c2)c1)c1ccccc1` [Compound 141, N-(5-(3-(7-(Pyridin-2-yl)-3H-imidazo[4,5-b]pyridin-2-yl)-1H-indazol-5-yl)pyridin-3-yl)benzamide], for which, in assay [1], the EC50 was determined as 9.99 nM. This compound came in with an IC50 in assay [2] of 13.7 nM.
